Literature values in publication PMC11982978, “Cancer hotspot mutations rewire ERK2 specificity by selective exclusion of docking interactions” (The Journal of Biological Chemistry, 2025).

Tested on: WT ERK2
Conditions: selective conditions (-His); hits Z > 3; average of three screens; cited from earlier work
From the text: Supplement mmc2.xlsx, sheet "WT Hits" | column: Z-score

Sequence	Z-score (ES) of hit sequences, WT ERK2 Y2H screen
AAGRRAAPYLVLTA [TFR2, D-site 14-mer in ELK1 Y2H prey]	3.19
AKRRIANLKIQLAK [WWC1, D-site 14-mer in ELK1 Y2H prey]	3.55
ALLRKINQVLLFLL [GLT8D2, D-site 14-mer in ELK1 Y2H prey]	5.93
ARGQRSVLQVPLPV [CRNKL1, D-site 14-mer in ELK1 Y2H prey]	4.21
CELPRRNCLLPFSN [NSD1, D-site 14-mer in ELK1 Y2H prey]	3.49
CKLKMKPRPIAILQ [TTN, D-site 14-mer in ELK1 Y2H prey]	7.96
DTPIRKKEELLFDD [FBF1, D-site 14-mer in ELK1 Y2H prey]	3.49
EEEFRKLTNVRIMK [PTPRE, D-site 14-mer in ELK1 Y2H prey]	8.60
EERKTKRPSLRLFG [PPARGC1A, D-site 14-mer in ELK1 Y2H prey]	4.99
EKIKVKSTEVEILE [MUM1, D-site 14-mer in ELK1 Y2H prey]	3.47
EKVKRKKNVLRLCC [PRAME, D-site 14-mer in ELK1 Y2H prey]	4.69
FTLKAKRPGLRLPD [FLRT1, D-site 14-mer in ELK1 Y2H prey]	4.42
GLTARRLLPLRLPP [MLYCD, D-site 14-mer in ELK1 Y2H prey]	14.29
GRPLRLPPPLRLLR [GNAS, D-site 14-mer in ELK1 Y2H prey]	3.08
HFRHKSQLRLHLRQ [BCL6, D-site 14-mer in ELK1 Y2H prey]	5.64
IFQRQRVDALLLDL [MED6, D-site 14-mer in ELK1 Y2H prey]	7.05

Sequence	Z-score (ES) of hit sequences, WT ERK2 Y2H screen
IKMKPKPRILSIKS [MAP9, D-site 14-mer in ELK1 Y2H prey]	3.08
IPKNRIHHKLVLPS [CENPC, D-site 14-mer in ELK1 Y2H prey]	3.05
ITKAIRDRLLFLRQ [NBAS, D-site 14-mer in ELK1 Y2H prey]	3.64
ITSKQRPRKLTLMG [MTOR, D-site 14-mer in ELK1 Y2H prey]	4.58
KCSRKKKPKLSLKA [L3MBTL3, D-site 14-mer in ELK1 Y2H prey]	10.66
KGKSKRKKDLRISC [MAP2K3, D-site 14-mer in ELK1 Y2H prey]	10.02
KGVKHRPPPIKLPS [SUPT20H, D-site 14-mer in ELK1 Y2H prey]	18.07
KKARGKPVRLRLSS [MELK, D-site 14-mer in ELK1 Y2H prey]	7.57
KKFRHRPEPLFIPP [TRERF1, D-site 14-mer in ELK1 Y2H prey]	19.05
KKGVKPKLVLNVTS [CMYA5, D-site 14-mer in ELK1 Y2H prey]	4.91
KKRKIPKLVLRINA [DENND2A, D-site 14-mer in ELK1 Y2H prey]	11.21
KKRKKKRLVINLSS [TTLL6, D-site 14-mer in ELK1 Y2H prey]	10.00
KKSRVPPPPILLSR [CFAP54, D-site 14-mer in ELK1 Y2H prey]	11.93
KKTRKLKIALALSD [PLCZ1, D-site 14-mer in ELK1 Y2H prey]	3.78
KLDKSPFVVVSVVG [TTC28, D-site 14-mer in ELK1 Y2H prey]	3.83
KPLKKKPTPVLLPQ [SEC63, D-site 14-mer in ELK1 Y2H prey]	3.34
